This passage reports solubility results from patent US20150342882A1, “METHODS OF TREATMENT USING CADOTRIL COMPOSITIONS” (Johnson & Johnson Consumer Inc., priority 2012, published 2015).

Converted amounts (≈) assume the structure as drawn.

The data set can be described thus: Water solubility of racecadotril. Conditions: room temperature conditions. Format: physicochemical.

Regarding `CC(=O)SCC(Cc1ccccc1)C(=O)NCC(=O)OCc1ccccc1` (racemic) [Racecadotril, (RS)-benzyl N-[3-(acetylthio)-2-benzylpropanoyl]glycinate], the solubility (usually how much of the substance goes into solution per volume) was about 10 µg/mL (≈ 25.9 µM).
